Experimental data reported in the NIST ThermoML archive (doi:10.1016/j.jct.2016.11.009).

Assay: xn = mol fraction of the nth substance listed
Details: Fluid (supercritical or subcritical phases), Buoyancy - hydrostatic balance with magnetic suspension - one sinker

C [methane] + O=C=O
Details | mass density [kg/m3]
305.24 K, 17994 kPa, x2 = 0.3997 | 283.653
308.05 K, 7997 kPa, x2 = 0.8988 | 229.008
308.06 K, 6995 kPa, x2 = 0.8988 | 175.453
308.08 K, 10996 kPa, x2 = 0.3997 | 155.394
308.09 K, 8982 kPa, x2 = 0.8988 | 306.981
308.11 K, 7002 kPa, x2 = 0.6015 | 114.28
308.11 K, 7996 kPa, x2 = 0.2017 | 78.731
308.11 K, 18002 kPa, x2 = 0.8988 | 711.774
308.12 K, 8003 kPa, x2 = 0.6015 | 136.504
308.12 K, 11997 kPa, x2 = 0.7985 | 401.005
308.12 K, 18001 kPa, x2 = 0.2017 | 195.388
308.12 K, 18004 kPa, x2 = 0.0998 | 162.496
308.13 K, 8003 kPa, x2 = 0.3997 | 104.538
308.13 K, 9004 kPa, x2 = 0.2017 | 90.207
308.13 K, 10002 kPa, x2 = 0.2017 | 101.87
308.13 K, 11000 kPa, x2 = 0.0998 | 95.867
308.13 K, 11001 kPa, x2 = 0.6015 | 214.588
308.13 K, 15001 kPa, x2 = 0.7985 | 523.511
308.13 K, 15007 kPa, x2 = 0.6015 | 328.628
308.14 K, 5002 kPa, x2 = 0.2017 | 46.531
308.14 K, 5997 kPa, x2 = 0.6015 | 93.812
308.14 K, 6001 kPa, x2 = 0.3997 | 74.193
308.14 K, 8998 kPa, x2 = 0.6015 | 160.546
308.14 K, 11000 kPa, x2 = 0.2017 | 113.723
308.14 K, 11000 kPa, x2 = 0.7985 | 342.357
308.14 K, 12002 kPa, x2 = 0.6015 | 243.454
308.14 K, 14996 kPa, x2 = 0.3997 | 227.135
308.15 K, 3000 kPa, x2 = 0.0998 | 23.193
308.15 K, 6999 kPa, x2 = 0.0998 | 57.796
308.15 K, 8996 kPa, x2 = 0.3997 | 120.739
308.15 K, 14997 kPa, x2 = 0.0998 | 134.77
308.16 K, 4002 kPa, x2 = 0.2017 | 36.486
308.16 K, 4004 kPa, x2 = 0.6015 | 57.94
308.16 K, 4006 kPa, x2 = 0.7985 | 70.911
308.16 K, 5006 kPa, x2 = 0.3997 | 60.225
308.16 K, 9001 kPa, x2 = 0.7985 | 229.843
308.16 K, 9993 kPa, x2 = 0.8988 | 417.764
308.16 K, 10002 kPa, x2 = 0.6015 | 186.699
308.16 K, 11997 kPa, x2 = 0.0998 | 105.588
308.16 K, 15001 kPa, x2 = 0.2017 | 161.57
308.16 K, 17997 kPa, x2 = 0.3997 | 276.178
308.17 K, 3998 kPa, x2 = 0.0998 | 31.42
308.17 K, 5006 kPa, x2 = 0.7985 | 93.74
308.17 K, 9004 kPa, x2 = 0.0998 | 76.501
308.17 K, 9994 kPa, x2 = 0.3997 | 137.721
308.17 K, 18002 kPa, x2 = 0.7985 | 590.479
308.18 K, 6001 kPa, x2 = 0.2017 | 56.895
308.18 K, 6999 kPa, x2 = 0.2017 | 67.631
308.18 K, 8000 kPa, x2 = 0.7985 | 185.875
308.18 K, 9999 kPa, x2 = 0.0998 | 86.118
308.19 K, 6002 kPa, x2 = 0.0998 | 48.761
308.19 K, 6002 kPa, x2 = 0.7985 | 119.651
308.19 K, 18000 kPa, x2 = 0.6015 | 395.269
308.2 K, 11998 kPa, x2 = 0.2017 | 125.636
308.21 K, 5001 kPa, x2 = 0.0998 | 39.985
308.21 K, 7002 kPa, x2 = 0.7985 | 149.932
308.22 K, 5002 kPa, x2 = 0.8988 | 104.568
308.22 K, 5006 kPa, x2 = 0.6015 | 75.217
308.22 K, 7001 kPa, x2 = 0.3997 | 88.937
308.22 K, 10003 kPa, x2 = 0.7985 | 282.745
308.23 K, 4004 kPa, x2 = 0.8988 | 78.335
308.23 K, 5998 kPa, x2 = 0.8988 | 135.871
308.23 K, 12000 kPa, x2 = 0.3997 | 173.174
308.24 K, 8000 kPa, x2 = 0.0998 | 67.015
308.24 K, 11004 kPa, x2 = 0.8988 | 513.225
308.26 K, 4003 kPa, x2 = 0.3997 | 46.849
308.26 K, 14998 kPa, x2 = 0.8988 | 660.797
308.34 K, 11928 kPa, x2 = 0.8988 | 563.033
